Test results reported in patent US20100029697A1, “SUBSTITUTED PYRIDO[3,2-E][1,2,4]TRIAZOLO[4,3-C]PYRIMIDINE DERIVATIVES AS CANNABINOID-1 RECEPTOR MODULATORS” (priority 2007, published 2010).

How the values were obtained:
[1] = target: recombinant human CB1 receptor expressed in CHO cells (Homo sapiens, UniProt P21554); experiment: Cannabinoid Receptor-1 (CB1) Functional Activity Assay (intracellular cAMP, forskolin-stimulated CB1-CHO cells); format: cell-based; details: for EC50: cAMP level in CB1-CHO cells with forskolin; for functional mode at CB1 receptor in the CB1 functional activity assay: cAMP readout in CB1-CHO cells
Experimental: The functional activation of CB1 receptor is based on recombinant human CB1 receptor expressed in CHO cells (Felder et al, Mol. Pharmacol. 48: 443-450, 1995). To determine the agonist activity or inverse agonist activity of any test compound, 50 ul of CB1-CHO cell suspension are mixed with test compound and 70 ul assay buffer containing 0.34 mM 3-isobutyl-1-methylxanthine and 5.1 uM of forskolin in 96-well plates. The assay buffer is comprised of Earle's Balanced Salt Solution supplemented with 5 mM MgCl2, 1 mM glutamine, 10 mM HEPES, and 1 mg/mL bovine serum albumin. The mixture is incubated at room temperature for 30 minutes, and terminated by adding 30 ul/well of 0.5M HCl. The total intracellular cAMP level is quantitated using the New England Nuclear Flashplate and cAMP radioimmunoassay kit.
To determine the antagonist activity of test compound, the reaction mixture also contains 0.5 nM of the agonist CP55940 (or 50 nM of methanandamide), and the reversal of the CP55940 (or methanandamide) effect is quantitated with increasing concentration of the test compound. Intracellular cAMP is determined as described above. An IC50 value for the test compound is calculated from the titration curve.

[2] = target: recombinant human CB1 receptor (Homo sapiens, UniProt P21554); experiment: Cannabinoid Receptor-1 (CB1) Binding Assay ([3H]CP-55940 displacement); details: recombinant human CB1 receptor in CHO cell membranes, 0.6 nM [3H]CP-55940
Experimental: Binding affinity determination is based on recombinant human CB1 receptor expressed in Chinese Hamster Ovary (CHO) cells (Felder et al, Mol. Pharmacol. 48: 443-450, 1995). Total assay volume is 250 μl (240 μl CB1 receptor membrane solution plus 5 μl test compound solution plus 5 μl [3H]CP-55940 solution). Final concentration of [3H]CP-55940 is 0.6 nM. Binding buffer contains 50 mM Tris-HCl, pH7.4, 2.5 mM EDTA, 5 mM MgCl2, 0.5 mg/mL fatty acid free bovine serum albumin and protease inhibitors (Cat#P8340, from Sigma). To initiate the binding reaction, 5 μl of radioligand solution is added, the mixture is incubated with gentle shaking on a shaker for 1.5 h at 30° C. The binding is terminated by using 96-well harvester and filtering through GF/C filter presoaked in 0.05% polyethylenimine. The bound radiolabel is quantitated using scintillation counter. Apparent binding affinities for various compounds are calculated from IC50 values (DeBlasi et al., Trends Pharmacol Sci 10: 227-229, 1989).

Sequence of recombinant human CB1 receptor expressed in CHO cells (P21554 whole entry): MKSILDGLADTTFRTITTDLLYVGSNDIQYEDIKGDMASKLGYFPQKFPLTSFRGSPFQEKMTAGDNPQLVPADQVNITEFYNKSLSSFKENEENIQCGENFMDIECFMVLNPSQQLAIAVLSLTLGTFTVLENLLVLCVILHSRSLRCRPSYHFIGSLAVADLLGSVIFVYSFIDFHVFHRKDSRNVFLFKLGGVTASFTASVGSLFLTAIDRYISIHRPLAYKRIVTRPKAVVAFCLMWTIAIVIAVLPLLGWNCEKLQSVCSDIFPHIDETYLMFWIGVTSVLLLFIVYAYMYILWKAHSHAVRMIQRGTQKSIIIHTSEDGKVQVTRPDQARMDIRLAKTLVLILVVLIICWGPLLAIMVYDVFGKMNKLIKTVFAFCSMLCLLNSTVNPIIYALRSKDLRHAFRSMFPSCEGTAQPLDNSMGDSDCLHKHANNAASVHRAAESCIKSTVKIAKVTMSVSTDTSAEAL
Sequence of recombinant human CB1 receptor (P21554 whole entry): as above

Compound	EC50 [1] [nM]	functional mode at CB1 receptor in the CB1 functional activity assay [1]	IC50 [2] [nM]
CC(C)(C)c1nc2nc(-c3ccc(C#N)cc3C#N)c(-c3ccc(Cl)cc3)cc2c2n[nH]c(=O)n12 [Example 31, 4-[5-Tert-butyl-9-(4-chlorophenyl)-3-oxo-2,3-dihydropyrido[3,2-e][1,2,4]triazolo[4,3-c]pyrimidin-8-yl]isophthalonitrile]	< 100	functional inverse agonists	4
CC(C)(C)c1nc2nc(-c3ccccc3Cl)c(-c3ccc(Cl)cc3)cc2c2n[nH]c(=O)n12 [Example 1, 5-Tert-butyl-8-(2-chlorophenyl)-9-(4-chlorophenyl)pyrido[3,2-e][1,2,4]triazolo[4,3-c]pyrimidin-3(2H)-one]	< 100	functional inverse agonists	2
CC(C)(C)c1nc2nc(-c3ccc(C#N)cc3Cl)c(-c3ccc(Cl)cc3)cc2c2n[nH]c(=O)n12 [Example 28, 4-[5-Tert-butyl-9-(4-chlorophenyl)-3-oxo-2,3-dihydropyrido[3,2-e][1,2,4]triazolo[4,3-c]pyrimidin-8-yl]-3-chlorobenzonitrile]	< 100	functional inverse agonists	1
CC(C)(C)c1nc2nc(-c3ccccc3-c3ccc(F)cc3)c(-c3ccc(F)cc3)cc2c2n[nH]c(=O)n12 [Example 27, 5-Tert-butyl-8-(4′-fluorobiphenyl-2-yl)-9-(4-fluorophenyl)pyrido[3,2-e][1,2,4]triazolo[4,3-c]pyrimidin-3(2H)-one]	< 100	functional inverse agonists	6
CC(C)(C)c1nc2nc(-c3ccccc3Cl)c(-c3ccc(-c4ncon4)cc3)cc2c2n[nH]c(=O)n12 [Example 32, 5-Tert-butyl-8-(2-chlorophenyl)-9-[4-(1,2,4-oxadiazol-3-yl)phenyl]pyrido[3,2-e][1,2,4]-triazolo[4,3-c]pyrimidin-3(2H)-one]	< 100	functional inverse agonists	11
CC(C)(C)c1nc2nc(-c3ccccc3Cl)c(-c3ccc(C#N)cc3)cc2c2n[nH]c(=O)n12 [Example 16, 4-[5-Tert-butyl-8-(2-chlorophenyl)-3-oxo-2,3-dihydropyrido[3,2-e][1,2,4]triazolo[4,3-c]pyrimidin-9-yl]benzonitrile]	< 100	functional inverse agonists	6
CC(=O)c1ccc(-c2cc3c(nc2-c2ccccc2Cl)nc(C(C)(C)C)n2c(=O)[nH]nc32)cc1 [Example 9, 9-(4-Acetylphenyl)-5-tert-butyl-8-(2-chlorophenyl)pyrido[3,2-e][1,2,4]triazolo[4,3-c]pyrimidin-3(2H)-one]	< 100	functional inverse agonists	10
